This is an account of results in US20220409573A1, “Hippocampus Regeneration And Memory Recovery” (INNOBIOSCIENCE, LLC, priority 2021, published 2022).

One test relates to Wnt target genes. In words: PCR array of Wnt target genes in hippocampal neurons. It counts as cell-based, rat. Here is the method: Primary culture of rat hippocampal neurons. […] PCR-ARRAY. RNA from hippocampal neurons was extracted using Trizol. Quantification and purity of RNA preparations were checked by absorbance using Nanodrop ND-2000. Only preparations with a 260/280 nm ratio≥1.8, a 260/230 nm ratio ≥1,7 and no sign of RNA degradations, verified by agarose gel electrophoresis with Gel Red TM were used. Genomic DNA was degraded. Using RT2First-Strand cDNA Synthesis kit (SuperArray), 1 μg total RNA was reverse transcribed and then real-time PCR was performed by adding cDNA directly to PCR Master Mix, containing SYBR Green and ROX. The mixtures were then aliquoted into a 96-well PCR array plates, which profiles the expression of 84 Wnt target genes from rat. The PCR was run on ABI StepOnePlus, with 1 cycle of 10 min at 95° C. followed by 40 cycles of 15 s at 95° C. and 1 min at 60° C.
Treatment of neuronal cultures. Primary hippocampal cultures of neurons 14 DIV were washed twice in neurobasal medium and maintained for 1 hour.

The subject of test [1] is CA3-CA1 connections in hippocampal slices. Nature of the test: Electrophysiology in Wt hippocampal slices (fEPSP, PPF, LTP, LTD). It is filed as cell-based, mice. The conditions noted are these: hippocampal slices; 6-BIO 10 nM. The procedure:
Slice Preparation and Electrophysiology. […] Slices were transferred to an experimental chamber (2 ml), superfused (3 ml/min, at 20-22° C.) with gassed ACSF and visualized by trans-illumination with a binocular microscope (MSZ-10, Nikon, Melville, N.Y.). To evoke field excitatory postsynaptic potentials (fEPSPs), we stimulate with bipolar concentric electrodes (Platinum/Iridium, 125 μm OD diameter, FHC Inc., Bowdoin, Me.) generated by a stimulator (Axon 700b, Molecular Devices, Sunnyvale, Calif.) and connected to an isolation unit (Isoflex, AMPI, Jerusalem, Israel) . The stimulation was in the Stratum Radiatum within 100-200 μm from the recording site. The paired pulse facilitation index was calculated by ((R2−R1)/R1), where R1 and R2 were the peak amplitudes of the first and second fEPSP respectively. To generate LTP we used Theta Burst Stimulation (TBS) consisting of 5 trains of stimulus with an inter-train interval of 20 s. Each train consisted of 10 bursts at 5 Hz and each burst having 4 pulses at 100 Hz. To generate LTD we used Low Frequency Stimulation (LFS) consisting in 900 paired pulses at 1 Hz. Recordings were filtered at 2.0-3.0 kHz, sampled at 4.0 kHz using an A/D converter, and stored with pClamp 10 (Molecular Devices). Evoked postsynaptic responses were analyzed off-line, using an analysis software (pClampfit, Molecular Devices), which allowed visual detection of events, computing only those events that exceeded and arbitrary threshold.

Test [2] deals with Wnt/β-catenin pathway in hippocampal slices. In words: β-catenin, GSK-3β and Dvl-3 western blot in hippocampal slices of wild-type mice. The conditions noted are these: for time at which total levels of β-catenin increased: 5 μM ANDRO, Wnt3a conditioned medium or 10 nM 6-BIO, up to 1 h. It is filed as cell-based. Here is the method: Slice preparation. […] Transverse slices (250-300 μm) from the dorsal hippocampus were cut under oxygen-saturated cold artificial cerebrospinal fluid using a Vibroslice microtome (VSL, World Precision Instruments, Inc WPI, Sarasota, Fla.). After obtained, slices were incubated in ACSF for at least than one hour at room temperature, in order to stabilize activity.
Immunoblotting. […] Briefly, tissues were homogenized in RIPA buffer (10 mM Tris-Cl, pH 7.4, EDTA 5 mM, 1% NP-40, 1% sodium deoxycholate, and 1% SDS) supplemented with a protease inhibitor mixture (1 mM PMSF, 2 μg/mL aprotinin, 1 μg/mL pepstatin and 10 μg/mL benzamidine) and phosphatase inhibitors (25 mMNaF, 100 mM Na3VO4, 1 mM EDTA and 30 μM Na4P207) using a Potter homogenizator and then passed sequentially through different caliber syringes. […] Protein concentration was determined using the BCA Protein Assay Kit (Pierce). […] The reactions were followed by incubation with anti-mouse, anti-goat or anti-rabbit IgG peroxidase conjugated (Pierce, Rockford, Ill.) and developed using an ECL kit (Western Lightning Plus ECL, PerkinElmer).

The test system of the next test is HEK293T cells. In words: TOP/FOP flash luciferase reporter assay. It counts as cell-based. Here is the method: Luciferase Assay. 150,000 HEK293T cells were seeded in triplicate per condition and kept for 24 hours at 37° C. with 5% CO2. The cultures were transfected with TOPflash or FOPflash (400 ng), which are firefly-luciferase reporter DNA constructs (Milipore), using LipofectAMINE 2000 (Invitrogen). To control for transfection pRL-TK (10 ng) was included in all transfections. […] Values were normalized by the renilla value from the same well. To statistically compare treatments ANOVA was used.

The mark [3] stands for this setting: 9 h treatment, of the 86 genes analyzed.

For `O=C1Nc2cc(Br)ccc2/C1=C1/Nc2ccccc2/C1=N\O` [6-BIO, 6-bromoindirubin-3′-oxime, reference compound], the Cdh-1 gene expression entry in the test on Wnt target genes is “does not”. Further, in the test with Wnt target genes (setting [3]), the “number of Wnt target genes specifically modulated” value was determined as 4 genes; the “number of changed Wnt target genes shared by ANDRO and 6-BIO” value came out at 4 genes. Moreover, in test [1], the “induction of LTD (fEPSP slope after LFS)” value is on record as “complete inhibition of the induction of LTD”. In test [2], the “time at which total levels of β-catenin increased” value was determined as 15 min. Further, the “rate of increase of GSK3β Ser-9 and decrease of Tyr-216 phosphorylation” value in test [2] (compared to Wnt-3a treatment) was “faster”. In the test with HEK293T cells (ANDRO 10 μM or 6-BIO 10 nM, 24 h), the TOPflash reporter activity entry is “significant increase”. For the same molecule, the “increase of luciferase reporter over control” value in the test with HEK293T cells (TOPflash, HEK293T) was about 6 fold.
Wnt-3a: the “time at which total levels of β-catenin increased” value in test [2] was determined as 45 min. Besides, the “inhibition of β-catenin accumulation by Wnt antagonists sFRP and Dkk-1” value in test [2] (antagonists 15 min before 5 μM ANDRO or Wnt3a conditioned medium for 1 h) is “able to inhibit the accumulation of β-catenin in the presence of Wnt3a”.
